Consider two molecules from patent publication US10253236B2, “Environmental friendly well treatment fluids comprising an ester” (AMRIL AG, priority 2013, dated 2019).

Series [1] in a line: Rheological characteristics of the oil based mud (Fann SR 12/Model 35 rheometer). It is filed as physicochemical. The conditions noted are these: 2.5 g additive in oil based mud, measuring temp. 50° C. Here is the method: (§1) An oil based well treatment fluid was prepared as follows: the indicated amounts of the following ingredients are mixed using a Silverson Mixer (model L4RT) in the following order: synthetic paraffin, filtration control agent (a polymer: preferably Adapta by Halliburton), Ca(OH)2, Amidoamin (Terradril EM 1122), Water, CaCl2*2H2O, BaSO4, ball clay.
(§2) Next, either an ester of the invention (for example azelaic ricinoleate or an ester based on a C21 dimer acid and ricinoleic acid) or a conventional viscosifier (C36 dimer acid) is added to the mixture and to obtain the final emulsion a standard Hamilton Beach mixer was used, following manufacturer's instructions.
(§3) Next, the rheological characteristics including the fluids-plastic viscosity (PV), yield point (YP) and gel strength (gels 10″/10′) after 10 seconds and 10 minutes were determined with a Fann SR 12/Model 35 rheometer (Fann). In addition to the rheological characteristics, the electrical stability was tested using a Model 23D Electrical Stability Tester, following manufacturer's instructions, in accordance with API recommended practice 13B-2, December 1991.
(§4) The well treatment fluid was also tested in a Roller Oven for the indicated times at the indicated temperatures (after hot rolling=AHR and before hot rolling=BHR as indicated in the Table). As roller oven, a Baroid Laboratory Roller Oven was used, following manufacturer's instructions.

Series [2] is described as follows: Electrical stability of the oil based mud (Model 23D Electrical Stability Tester, API 13B-2). It is filed as physicochemical. The conditions noted are these: 2.5 g additive in oil based mud, measuring temp. 50° C. Here is the method: as §1, §2, §3, §4
Another series relates to seawater bacteria. The series can be described thus: Inhibition to seawater bacteria (Marine BODIS test). The following applies: natural seawater.
Setting [3] is: AHR 16 h (System 4: 15 h) at 150 °F.
Where [4] appears, read: AHR (after hot rolling) 16 h (System 4: 15 h) at 150 °F.

Method for seawater bacteria: This method uses natural seawater (salinity 34%-37%) with added mineral nutrients (8.5 g/l KH2PO4, 21.7 g/l K2HPO4, 29.92 g/l Na2HPO4.2H2O, 0.5 g/l NH4Cl, 31.84 CaCl2, 22.5 g/l MgSO4.7H2O, 0.25 g/l FeCl3.6H2O, 0.4 g/l EDTA) and no inoculum was added in addition to the microorganisms already present in the seawater. The test vessels were closed glass bottles with a known volume of aqueous test mixture (66.6%) and air (33.3%). They were shaken continuously to assure steady state oxygen partitioning between the aqueous and gaseous phase. The degradation was followed by weekly measurements of the biochemical oxygen demand (BOD) in the aqueous phase for a 28-day period. The test vessels were re-aerated and resealed after measurement. The total oxygen uptake in the test flasks was calculated from the measured oxygen concentration divided by the saturation value at normal conditions and multiplied with the total oxygen content originally present in the aqueous and gaseous phases.
Three replicates were used for each test condition: test substance, controls, and insoluble reference substance. The total oxygen capacity of each test vessel was 26.64 mg oxygen. […]

In series [1] (setting [3]), `CCCCCCC(CC=CCCCCCCCC(=O)O)OC(=O)CCCCCCCC(=O)O` (stereo not shown) [Azelaic ricinoleate, azelaic ricinoleate] came in with a 3 rpm of 24 skt, a 6 rpm of 24 skt, a 100 rpm of 30 skt and a 200 rpm of 37 skt. Moreover, in series [1] (setting [3]), the 300 rpm came to 44 skt, the 600 rpm is reported as 59 skt, the “Gels 10′ (gel strength after 10 minutes)” value is listed as 25 lb/100 ft^2 and the “Gels 10″ (gel strength after 10 seconds)” value was found to be 22 lb/100 ft^2. Further, in series [1] (setting [3]), the “PV (plastic viscosity)” value amounted to 15 cP and the “YP (yield point)” value amounted to 29 lb/100 ft^2. In series [1] (BHR), this molecule came in with a 3 rpm of 25 skt, a 6 rpm of 25 skt, a 100 rpm of 31 skt and a 200 rpm of 38 skt. In series [1] (BHR), the 300 rpm was 44 skt, the 600 rpm stood at 59 skt, the “Gels 10′ (gel strength after 10 minutes)” value came to 25 lb/100 ft^2 and the “Gels 10″ (gel strength after 10 seconds)” value turned out to be 20 lb/100 ft^2. In addition, in series [1] (BHR), the “PV (plastic viscosity)” value is 15 cP and the “YP (yield point)” value is given as 29 lb/100 ft^2. This molecule also yielded an Electrical stab. in series [2] (setting [4]) of 802 V. The Electrical stab. in series [2] (BHR (before hot rolling)) turned out to be 760 V. Also, in the series on seawater bacteria, the “inhibition to seawater bacteria” value was −14%.
In series [1] (setting [3]), C36 dimer acid gave a 3 rpm of 10 skt, a 6 rpm of 12 skt, a 100 rpm of 23 skt and a 200 rpm of 29 skt. In addition, in series [1] (setting [3]), the 300 rpm is on record as 35 skt, the 600 rpm is listed as 49 skt, the “Gels 10′ (gel strength after 10 minutes)” value came out at 15 lb/100 ft^2 and the “Gels 10″ (gel strength after 10 seconds)” value turned out to be 11 lb/100 ft^2. In addition, in series [1] (setting [3]), the “PV (plastic viscosity)” value was 14 cP and the “YP (yield point)” value was 21 lb/100 ft^2. In addition, in series [1] (BHR), the 3 rpm is on record as 15 skt, the 6 rpm was 15 skt, the 100 rpm is on record as 25 skt and the 200 rpm was 32 skt. Moreover, in series [1] (BHR), the 300 rpm was found to be 39 skt, the 600 rpm is given as 52 skt, the “Gels 10′ (gel strength after 10 minutes)” value amounted to 19 lb/100 ft^2 and the “Gels 10″ (gel strength after 10 seconds)” value came out at 16 lb/100 ft^2. Moreover, in series [1] (BHR), the “PV (plastic viscosity)” value was determined as 13 cP and the “YP (yield point)” value stood at 26 lb/100 ft^2. In series [2] (setting [4]), the Electrical stab. is on record as 830 V. The Electrical stab. in series [2] (BHR (before hot rolling)) turned out to be 795 V. Moreover, in the series with seawater bacteria, the “inhibition to seawater bacteria” value is −1%.
